ChEMBL document CHEMBL1201861, “Genomics of Drug Sensitity in Cancer screening data, Wellcome Trust Sanger Institute”

Legend:
Assay in all cases: cells
Format in all cases: functional, cell-based, Homo sapiens
8305C = tested on: 8305C
Description: SANGER: Inhibition of human 8305C cell growth in a cell viability assay.

NCI-H1975 = tested on: NCI-H1975
Description: SANGER: Inhibition of human NCI-H1975 cell growth in a cell viability assay.

VM-CUB-1 = tested on: VM-CUB-1;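 further: cell viability assay measuring growth inhibition of the human VM-CUB-1 cell line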
Description: SANGER: Inhibition of human VM-CUB-1 cell growth in a cell viability assay.

NCI-H1048 = tested on: NCI-H1048;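 further: growth inhibition of human NCI-H1048 cells, read out with a cell viability assay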
Description: SANGER: Inhibition of human NCI-H1048 cell growth in a cell viability assay.

COLO-680N = tested on: COLO-680N;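 further: cell viability assay used to measure inhibition of COLO-680N cell growth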
Description: SANGER: Inhibition of human COLO-680N cell growth in a cell viability assay.

BFTC-905 = tested on: BFTC-905
Description: SANGER: Inhibition of human BFTC-905 cell growth in a cell viability assay.

CAL-51 = tested on: CAL-51;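 further: human CAL-51 cell line, growth inhibition read out via a cell viability assay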
Description: SANGER: Inhibition of human CAL-51 cell growth in a cell viability assay.

EFO-27 = tested on: EFO-27;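 further: growth inhibition of EFO-27 cells, read out with a cell viability assay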
Description: SANGER: Inhibition of human EFO-27 cell growth in a cell viability assay.

647-V = tested on: 647-V;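 further: growth inhibition of 647-V cells, read out with a cell viability assay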
Description: SANGER: Inhibition of human 647-V cell growth in a cell viability assay.

BPH-1 = tested on: BPH-1;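 further: cell viability assay measuring growth inhibition of human BPH-1 cells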
Description: SANGER: Inhibition of human BPH-1 cell growth in a cell viability assay.

LU-135 = tested on: LU-135
Description: SANGER: Inhibition of human LU-135 cell growth in a cell viability assay.

OAW-28 = tested on: OAW-28;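 further: growth inhibition of OAW-28 cells, read out with a cell viability assay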
Description: SANGER: Inhibition of human OAW-28 cell growth in a cell viability assay.

IGR-1 = tested on: IGR-1;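 further: growth inhibition of human IGR-1 cells, read out with a cell viability assay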
Description: SANGER: Inhibition of human IGR-1 cell growth in a cell viability assay.

MKN-45 = tested on: MKN-45;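 further: growth inhibition of human MKN-45 cells, measured with a cell viability assay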
Description: SANGER: Inhibition of human MKN45 cell growth in a cell viability assay.

SW900 = tested on: SW900;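 further: IC50 is the concentration that inhibits SW900 cell growth, measured by a cell viability assay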
Description: SANGER: Inhibition of human SW900 cell growth in a cell viability assay.

RH-18 = tested on: RH-18;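 further: growth inhibition of human RH-18 cells, read out with a cell viability assay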
Description: SANGER: Inhibition of human RH-18 cell growth in a cell viability assay.

SK-LU-1 = tested on: SK-LU-1;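 further: cell viability assay measuring growth inhibition of human SK-LU-1 cells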
Description: SANGER: Inhibition of human SK-LU-1 cell growth in a cell viability assay.

EPLC-272H = tested on: EPLC-272H
Description: SANGER: Inhibition of human EPLC-272H cell growth in a cell viability assay.

CAL-12T = tested on: CAL-12T;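 further: growth inhibition of human CAL-12T cells, read out with a cell viability assay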
Description: SANGER: Inhibition of human CAL-12T cell growth in a cell viability assay.

NCI-H1666 = tested on: NCI-H1666;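 further: growth inhibition of the cell line, read out with a cell viability assay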
Description: SANGER: Inhibition of human NCI-H1666 cell growth in a cell viability assay.

OVCAR-8 = tested on: OVCAR-8;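 further: growth inhibition of human OVCAR-8 cells, read out by a cell viability assay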
Description: SANGER: Inhibition of human OVCAR-8 cell growth in a cell viability assay.

639-V = tested on: 639-V;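 further: growth inhibition of 639-V cells, read out with a cell viability assay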
Description: SANGER: Inhibition of human 639-V cell growth in a cell viability assay.

MDA-MB-415 = tested on: MDA-MB-415
HuO-3N1 = tested on: HuO-3N1;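 further: cell viability readout used to measure how strongly compounds suppress proliferation of human HuO-3N1 cells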
Description: SANGER: Inhibition of human HuO-3N1 cell growth in a cell viability assay.

NCI-H2052 = tested on: NCI-H2052;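 further: growth inhibition of NCI-H2052 cells, read out with a cell viability assay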
Description: SANGER: Inhibition of human NCI-H2052 cell growth in a cell viability assay.

ECC10 = tested on: ECC10;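 further: growth inhibition of ECC10 cells, read out by a cell viability assay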
Description: SANGER: Inhibition of human ECC10 cell growth in a cell viability assay.

HCC1954 = tested on: HCC1954;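 further: growth inhibition of human HCC1954 cells, read out with a cell viability assay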
Description: SANGER: Inhibition of human HCC1954 cell growth in a cell viability assay.

CAL-27 = tested on: CAL-27;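 further: Viability-based readout, IC50 reflecting inhibition of CAL-27 cell growth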
Description: SANGER: Inhibition of human CAL-27 cell growth in a cell viability assay.

TGBC11TKB = tested on: TGBC11TKB;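 further: growth inhibition of human TGBC11TKB cells, measured by a cell viability assay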
Description: SANGER: Inhibition of human TGBC11TKB cell growth in a cell viability assay.

OVCAR-3 = tested on: OVCAR-3;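 further: growth inhibition of human OVCAR-3 cells, determined by a cell viability assay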
Description: SANGER: Inhibition of human OVCAR-3 cell growth in a cell viability assay.

TI-73 = tested on: TI-73;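 further: cell viability assay measuring how much compounds suppress growth of the cultured cell line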
Description: SANGER: Inhibition of human TI-73 cell growth in a cell viability assay.

NCI-H292 = tested on: NCI-H292;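 further: growth inhibition of NCI-H292 cells, read out with a cell viability assay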
Description: SANGER: Inhibition of human NCI-H292 cell growth in a cell viability assay.

NBsusSR = tested on: NBsusSR;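 further: growth inhibition of the human cell line, read out with a cell viability assay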
Description: SANGER: Inhibition of human NBsusSR cell growth in a cell viability assay.

BALL-1 = tested on: BALL-1;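 further: growth inhibition of BALL-1 cells, read out with a cell viability assay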
Description: SANGER: Inhibition of human BALL-1 cell growth in a cell viability assay.

LCLC-103H cell line = tested on: LCLC-103H cell line
Description: SANGER: Inhibition of human LCLC-103H cell growth in a cell viability assay.

Compound: Cc1cn(-c2cc(NC(=O)c3ccc(C)c(Nc4nccc(-c5cccnc5)n4)c3)cc(C(F)(F)F)c2)cn1 [NILOTINIB]
- IC50 (8305C; Homo sapiens, 8305C): > 2 µM
- IC50 (NCI-H1975; Homo sapiens, NCI-H1975): > 2 µM
- IC50 (VM-CUB-1; Homo sapiens, VM-CUB-1): > 2 µM
- IC50 (NCI-H1048; Homo sapiens, NCI-H1048): > 2 µM
- IC50 (COLO-680N; Homo sapiens, COLO-680N): > 2 µM
- IC50 (BFTC-905; Homo sapiens, BFTC-905): > 2 µM
- IC50 (CAL-51; Homo sapiens, CAL-51): > 2 µM
- IC50 (EFO-27; Homo sapiens, EFO-27): > 2 µM
- IC50 (647-V; Homo sapiens, 647-V): > 2 µM
- IC50 (BPH-1; Homo sapiens, BPH-1): > 2 µM
- IC50 (LU-135; Homo sapiens, LU-135): > 2 µM
- IC50 (OAW-28; Homo sapiens, OAW-28): > 2 µM
- IC50 (IGR-1; Homo sapiens, IGR-1): > 2 µM
- IC50 (MKN-45; Homo sapiens, MKN-45): > 2 µM
- IC50 (SW900; Homo sapiens, SW900): > 2 µM
- IC50 (RH-18; Homo sapiens, Rh18): > 2 µM
- IC50 (SK-LU-1; Homo sapiens, SK-LU-1): > 2 µM
- IC50 (EPLC-272H; Homo sapiens, EPLC-272H): > 2 µM
- IC50 (CAL-12T; Homo sapiens, CAL-12T): > 2 µM
- IC50 (NCI-H1666; Homo sapiens, NCI-H1666): > 2 µM
- IC50 (OVCAR-8; Homo sapiens, OVCAR-8): > 2 µM
- IC50 (639-V; Homo sapiens, 639-V): > 2 µM
- IC50 (MDA-MB-415; Homo sapiens, MDA-MB-415): > 2 µM
- IC50 (HuO-3N1; Homo sapiens, HuO-3N1): > 2 µM
- IC50 (NCI-H2052; Homo sapiens, NCI-H2052): > 2 µM
- IC50 (ECC10; Homo sapiens, ECC10): > 2 µM
- IC50 (HCC1954; Homo sapiens, HCC1954): > 2 µM
- IC50 (CAL-27; Homo sapiens, CAL-27): > 2 µM
- IC50 (TGBC11TKB; Homo sapiens, TGBC11TKB): > 2 µM
- IC50 (OVCAR-3; Homo sapiens, OVCAR-3): > 2 µM
- IC50 (TI-73; Homo sapiens, TI-73): > 2 µM
- IC50 (NCI-H292; Homo sapiens, NCI-H292): > 2 µM
- IC50 (NBsusSR; Homo sapiens, NBsusSR): > 2 µM
- IC50 (BALL-1; Homo sapiens, BALL-1): > 2 µM
- IC50 (LCLC-103H cell line; Homo sapiens, LCLC-103H): > 2 µM

Compound: CO[C@H]1C[C@@H]2CC[C@@H](C)[C@@](O)(O2)C(=O)C(=O)N2CCCC[C@H]2C(=O)O[C@H]([C@H](C)C[C@@H]2CC[C@@H](OC(=O)C(C)(CO)CO)[C@H](OC)C2)CC(=O)[C@H](C)/C=C(\C)[C@@H](O)[C@@H](OC)C(=O)[C@H](C)C[C@H](C)/C=C/C=C/C=C/1C [TEMSIROLIMUS]
- IC50 (8305C; Homo sapiens, 8305C): > 0.2 µM
- IC50 (NCI-H1975; Homo sapiens, NCI-H1975): > 0.2 µM
- IC50 (VM-CUB-1; Homo sapiens, VM-CUB-1): 0.0127 µM
- IC50 (NCI-H1048; Homo sapiens, NCI-H1048): > 0.2 µM
- IC50 (COLO-680N; Homo sapiens, COLO-680N): > 0.2 µM
- IC50 (BFTC-905; Homo sapiens, BFTC-905): > 0.2 µM
- IC50 (CAL-51; Homo sapiens, CAL-51): > 0.2 µM
- IC50 (EFO-27; Homo sapiens, EFO-27): 0.0331 µM
- IC50 (647-V; Homo sapiens, 647-V): > 0.2 µM
- IC50 (BPH-1; Homo sapiens, BPH-1): 0.0324 µM
- IC50 (LU-135; Homo sapiens, LU-135): > 0.2 µM
- IC50 (OAW-28; Homo sapiens, OAW-28): > 0.2 µM
- IC50 (IGR-1; Homo sapiens, IGR-1): > 0.2 µM
- IC50 (MKN-45; Homo sapiens, MKN-45): > 0.2 µM
- IC50 (SW900; Homo sapiens, SW900): > 0.2 µM
- IC50 (RH-18; Homo sapiens, Rh18): > 0.2 µM
- IC50 (SK-LU-1; Homo sapiens, SK-LU-1): 0.102 µM
- IC50 (EPLC-272H; Homo sapiens, EPLC-272H): > 0.2 µM
- IC50 (CAL-12T; Homo sapiens, CAL-12T): > 0.2 µM
- IC50 (NCI-H1666; Homo sapiens, NCI-H1666): > 0.2 µM
- IC50 (OVCAR-8; Homo sapiens, OVCAR-8): 0.136 µM
- IC50 (639-V; Homo sapiens, 639-V): > 0.2 µM
- IC50 (MDA-MB-415; Homo sapiens, MDA-MB-415): 0.036 µM
- IC50 (HuO-3N1; Homo sapiens, HuO-3N1): 0.023 µM
- IC50 (NCI-H2052; Homo sapiens, NCI-H2052): > 0.2 µM
- IC50 (ECC10; Homo sapiens, ECC10): > 0.2 µM
- IC50 (HCC1954; Homo sapiens, HCC1954): > 0.2 µM
- IC50 (CAL-27; Homo sapiens, CAL-27): > 0.2 µM
- IC50 (TGBC11TKB; Homo sapiens, TGBC11TKB): > 0.2 µM
- IC50 (OVCAR-3; Homo sapiens, OVCAR-3): > 0.2 µM
- IC50 (TI-73; Homo sapiens, TI-73): > 0.2 µM
- IC50 (NCI-H292; Homo sapiens, NCI-H292): 0.00984 µM
- IC50 (NBsusSR; Homo sapiens, NBsusSR): 0.0213 µM
- IC50 (BALL-1; Homo sapiens, BALL-1): > 0.2 µM
- IC50 (LCLC-103H cell line; Homo sapiens, LCLC-103H): > 0.2 µM

Compound: CISPLATIN
- IC50 (8305C; 8305c): 61.6 µM
- IC50 (NCI-H1975; nci-h1975): 409 µM
- IC50 (VM-CUB-1; vm-cub-1): 6.3 µM
- IC50 (NCI-H1048; nci-h1048): 9.87 µM
- IC50 (COLO-680N; colo-680n): 23.6 µM
- IC50 (BFTC-905; bftc-905): 2.58 µM
- IC50 (CAL-51; cal-51): 16.4 µM
- IC50 (EFO-27; efo-27): 13.2 µM
- IC50 (647-V; 647-v): 114 µM
- IC50 (BPH-1; bph-1): 17.9 µM
- IC50 (LU-135; lu-135): 33.8 µM
- IC50 (OAW-28; oaw-28): 22.9 µM
- IC50 (IGR-1; igr-1): 575 µM
- IC50 (MKN-45; mkn-45): 28.6 µM
- IC50 (SW900; sw900): 28.9 µM
- IC50 (RH-18; rh-18): 353 µM
- IC50 (SK-LU-1; sk-lu-1): 7.38 µM
- IC50 (EPLC-272H; eplc-272h): 13 µM
- IC50 (CAL-12T; cal-12t): 625 µM
- IC50 (NCI-H1666; nci-h1666): 56.5 µM
- IC50 (OVCAR-8; ovcar-8): 19.9 µM
- IC50 (639-V; 639-v): 5.89 µM
- IC50 (MDA-MB-415; mda-mb-415): 48.4 µM
- IC50 (HuO-3N1; huo-3n1): 8.87 µM
- IC50 (NCI-H2052; nci-h2052): 166 µM
- IC50 (ECC10; ecc10): 258 µM
- IC50 (HCC1954; hcc1954): 1030 µM
- IC50 (CAL-27; cal-27): 6.69 µM
- IC50 (TGBC11TKB; tgbc11tkb): 29.4 µM
- IC50 (OVCAR-3; ovcar-3): 696 µM
- IC50 (TI-73; ti-73): 8.53 µM
- IC50 (NCI-H292; nci-h292): 364 µM
- IC50 (NBsusSR; nbsussr): 1.33 µM
- IC50 (BALL-1; ball-1): 75.9 µM
- IC50 (LCLC-103H cell line; lclc-103h): 28.2 µM
